This note sets out measurements from ChEMBL document CHEMBL3991601, “The target landscape of clinical kinase drugs” (Science, 2017).

Assay [1] has as its target T1, Membrane-associated tyrosine- and threonine-specific cdc2-inhibitory kinase (Homo sapiens, UniProt Q99640).
T1 sequence (Q99640 whole entry): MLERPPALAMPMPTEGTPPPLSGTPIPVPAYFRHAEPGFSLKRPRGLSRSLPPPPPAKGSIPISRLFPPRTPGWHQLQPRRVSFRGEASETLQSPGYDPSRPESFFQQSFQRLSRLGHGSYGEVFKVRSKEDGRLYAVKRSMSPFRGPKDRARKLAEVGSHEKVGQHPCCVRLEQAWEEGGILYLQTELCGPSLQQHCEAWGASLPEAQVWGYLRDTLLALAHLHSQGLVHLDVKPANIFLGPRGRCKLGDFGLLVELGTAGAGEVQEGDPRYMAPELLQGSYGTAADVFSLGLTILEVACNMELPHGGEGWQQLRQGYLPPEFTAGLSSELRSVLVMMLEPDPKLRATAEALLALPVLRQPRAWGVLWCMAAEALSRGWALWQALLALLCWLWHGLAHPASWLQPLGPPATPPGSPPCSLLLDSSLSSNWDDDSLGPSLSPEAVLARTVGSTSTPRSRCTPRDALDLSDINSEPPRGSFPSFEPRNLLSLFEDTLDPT

Assay [2] addresses T2, Non-receptor tyrosine-protein kinase TNK1 (Homo sapiens, UniProt Q13470).
T2 sequence (Q13470 whole entry): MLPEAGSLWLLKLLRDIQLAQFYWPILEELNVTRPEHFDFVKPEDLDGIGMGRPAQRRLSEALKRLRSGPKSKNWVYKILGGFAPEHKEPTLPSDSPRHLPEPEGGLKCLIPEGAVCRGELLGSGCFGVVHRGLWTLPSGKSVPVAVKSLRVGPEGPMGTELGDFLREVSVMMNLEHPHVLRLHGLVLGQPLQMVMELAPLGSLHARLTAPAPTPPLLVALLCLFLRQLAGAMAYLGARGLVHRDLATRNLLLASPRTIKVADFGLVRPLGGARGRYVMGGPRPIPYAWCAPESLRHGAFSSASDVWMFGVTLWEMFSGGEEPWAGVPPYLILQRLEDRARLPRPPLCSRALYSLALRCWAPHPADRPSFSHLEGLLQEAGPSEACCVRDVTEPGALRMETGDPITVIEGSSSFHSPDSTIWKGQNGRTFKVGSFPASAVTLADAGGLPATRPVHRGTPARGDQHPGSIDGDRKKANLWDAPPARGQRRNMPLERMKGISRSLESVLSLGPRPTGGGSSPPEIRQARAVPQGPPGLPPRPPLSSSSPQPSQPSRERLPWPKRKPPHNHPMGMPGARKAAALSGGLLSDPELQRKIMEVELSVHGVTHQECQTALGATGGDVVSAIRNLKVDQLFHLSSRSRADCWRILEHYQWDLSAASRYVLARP

For assay [3], the target named is TRAF2 and NCK-interacting protein kinase (Homo sapiens, UniProt Q9UKE5).
Assay [4] deals with T3, Serine/threonine-protein kinase ULK3 (Homo sapiens, UniProt Q6PHR2).
T3 sequence (Q6PHR2 whole entry): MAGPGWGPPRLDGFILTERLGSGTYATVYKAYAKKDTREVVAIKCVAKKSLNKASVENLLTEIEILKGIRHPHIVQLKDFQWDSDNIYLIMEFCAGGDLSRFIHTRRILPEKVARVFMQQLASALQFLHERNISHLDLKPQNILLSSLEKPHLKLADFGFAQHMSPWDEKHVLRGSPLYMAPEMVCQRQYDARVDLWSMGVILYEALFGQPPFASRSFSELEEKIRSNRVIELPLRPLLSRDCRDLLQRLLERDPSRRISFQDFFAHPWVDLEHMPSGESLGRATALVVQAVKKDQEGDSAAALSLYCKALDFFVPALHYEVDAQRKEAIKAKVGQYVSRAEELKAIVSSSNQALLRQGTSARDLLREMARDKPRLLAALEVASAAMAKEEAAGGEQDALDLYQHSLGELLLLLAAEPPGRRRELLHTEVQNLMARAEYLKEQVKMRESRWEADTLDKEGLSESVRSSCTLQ

In assay [5] the target is MAP/microtubule affinity-regulating kinase 3 (Homo sapiens, UniProt P27448).
Assay [6] has as its target T4, Structural maintenance of chromosomes protein 1A (Homo sapiens, UniProt Q14683).
T4 sequence (Q14683 whole entry): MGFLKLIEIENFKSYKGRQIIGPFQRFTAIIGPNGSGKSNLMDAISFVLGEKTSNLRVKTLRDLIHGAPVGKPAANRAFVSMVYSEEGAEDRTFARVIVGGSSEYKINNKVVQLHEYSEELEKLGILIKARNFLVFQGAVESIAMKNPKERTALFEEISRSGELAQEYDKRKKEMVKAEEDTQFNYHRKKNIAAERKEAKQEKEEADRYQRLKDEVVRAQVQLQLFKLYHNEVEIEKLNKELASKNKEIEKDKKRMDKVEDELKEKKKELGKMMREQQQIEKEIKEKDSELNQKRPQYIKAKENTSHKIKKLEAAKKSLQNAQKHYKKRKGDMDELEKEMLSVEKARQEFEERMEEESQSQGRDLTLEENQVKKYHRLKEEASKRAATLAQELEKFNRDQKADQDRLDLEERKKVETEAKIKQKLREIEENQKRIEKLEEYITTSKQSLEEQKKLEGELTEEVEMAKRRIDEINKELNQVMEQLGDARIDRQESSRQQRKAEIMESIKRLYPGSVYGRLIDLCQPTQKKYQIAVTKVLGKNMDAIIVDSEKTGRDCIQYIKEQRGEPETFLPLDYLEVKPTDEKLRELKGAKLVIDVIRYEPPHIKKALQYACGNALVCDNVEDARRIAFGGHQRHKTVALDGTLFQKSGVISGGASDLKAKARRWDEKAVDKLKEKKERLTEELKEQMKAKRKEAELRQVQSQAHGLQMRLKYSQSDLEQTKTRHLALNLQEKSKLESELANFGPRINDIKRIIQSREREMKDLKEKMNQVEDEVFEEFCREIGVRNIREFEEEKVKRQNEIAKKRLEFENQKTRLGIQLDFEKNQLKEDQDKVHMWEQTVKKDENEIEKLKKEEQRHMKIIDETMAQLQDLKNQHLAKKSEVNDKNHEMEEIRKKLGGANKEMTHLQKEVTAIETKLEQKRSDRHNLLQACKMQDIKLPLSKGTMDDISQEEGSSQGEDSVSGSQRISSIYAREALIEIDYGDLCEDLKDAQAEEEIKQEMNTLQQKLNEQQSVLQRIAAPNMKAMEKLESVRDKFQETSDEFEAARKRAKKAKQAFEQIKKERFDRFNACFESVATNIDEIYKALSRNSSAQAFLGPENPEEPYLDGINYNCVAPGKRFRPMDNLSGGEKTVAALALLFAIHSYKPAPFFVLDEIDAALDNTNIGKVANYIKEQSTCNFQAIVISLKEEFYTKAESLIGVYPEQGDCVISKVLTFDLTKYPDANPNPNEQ

pKd: −log10 of the molar value. Active and inactive are the calls of the source. Rule as the data show it, for most assays here: actives have a measured Kd and inactives only a lower limit. Some results are limits rather than exact numbers.
Also: in the data inactive means no Kd found up to 30 µM.

Sequence of TRAF2 and NCK-interacting protein kinase (Q9UKE5 whole entry): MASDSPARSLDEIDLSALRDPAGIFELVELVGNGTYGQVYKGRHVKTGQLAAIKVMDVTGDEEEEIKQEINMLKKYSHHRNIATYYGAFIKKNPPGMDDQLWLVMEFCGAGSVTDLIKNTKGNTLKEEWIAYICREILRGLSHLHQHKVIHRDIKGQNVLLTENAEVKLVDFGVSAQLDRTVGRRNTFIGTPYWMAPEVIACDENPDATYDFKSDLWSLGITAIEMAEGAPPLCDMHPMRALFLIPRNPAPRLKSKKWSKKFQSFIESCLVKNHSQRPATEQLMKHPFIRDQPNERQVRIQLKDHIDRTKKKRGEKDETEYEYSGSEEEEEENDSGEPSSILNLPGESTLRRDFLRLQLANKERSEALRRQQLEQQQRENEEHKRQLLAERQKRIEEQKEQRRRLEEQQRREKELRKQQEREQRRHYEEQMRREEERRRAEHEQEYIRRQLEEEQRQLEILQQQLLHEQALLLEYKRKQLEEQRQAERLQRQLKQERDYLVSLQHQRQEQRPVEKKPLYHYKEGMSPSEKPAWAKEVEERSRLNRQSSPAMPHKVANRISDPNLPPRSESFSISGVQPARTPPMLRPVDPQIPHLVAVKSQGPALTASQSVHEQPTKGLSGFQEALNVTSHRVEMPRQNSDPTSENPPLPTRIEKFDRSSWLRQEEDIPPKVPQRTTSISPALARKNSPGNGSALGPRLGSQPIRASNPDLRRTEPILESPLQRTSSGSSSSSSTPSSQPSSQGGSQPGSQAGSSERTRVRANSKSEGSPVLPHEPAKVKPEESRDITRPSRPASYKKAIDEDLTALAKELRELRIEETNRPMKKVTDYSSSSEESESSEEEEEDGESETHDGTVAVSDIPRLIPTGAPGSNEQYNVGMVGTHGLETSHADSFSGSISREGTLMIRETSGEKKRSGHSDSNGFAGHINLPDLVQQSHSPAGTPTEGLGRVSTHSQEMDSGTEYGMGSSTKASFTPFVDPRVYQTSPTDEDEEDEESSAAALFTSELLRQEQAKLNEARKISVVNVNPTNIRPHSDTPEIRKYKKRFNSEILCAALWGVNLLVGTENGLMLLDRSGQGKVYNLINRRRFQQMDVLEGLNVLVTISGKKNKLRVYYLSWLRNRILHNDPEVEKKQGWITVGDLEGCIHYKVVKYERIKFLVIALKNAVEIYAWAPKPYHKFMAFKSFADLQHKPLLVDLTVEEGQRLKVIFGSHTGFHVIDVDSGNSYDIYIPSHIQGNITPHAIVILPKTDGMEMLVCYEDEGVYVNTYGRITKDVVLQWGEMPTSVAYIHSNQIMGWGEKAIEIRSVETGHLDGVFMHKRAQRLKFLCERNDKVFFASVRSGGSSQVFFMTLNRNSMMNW
Sequence of MAP/microtubule affinity-regulating kinase 3 (P27448 whole entry): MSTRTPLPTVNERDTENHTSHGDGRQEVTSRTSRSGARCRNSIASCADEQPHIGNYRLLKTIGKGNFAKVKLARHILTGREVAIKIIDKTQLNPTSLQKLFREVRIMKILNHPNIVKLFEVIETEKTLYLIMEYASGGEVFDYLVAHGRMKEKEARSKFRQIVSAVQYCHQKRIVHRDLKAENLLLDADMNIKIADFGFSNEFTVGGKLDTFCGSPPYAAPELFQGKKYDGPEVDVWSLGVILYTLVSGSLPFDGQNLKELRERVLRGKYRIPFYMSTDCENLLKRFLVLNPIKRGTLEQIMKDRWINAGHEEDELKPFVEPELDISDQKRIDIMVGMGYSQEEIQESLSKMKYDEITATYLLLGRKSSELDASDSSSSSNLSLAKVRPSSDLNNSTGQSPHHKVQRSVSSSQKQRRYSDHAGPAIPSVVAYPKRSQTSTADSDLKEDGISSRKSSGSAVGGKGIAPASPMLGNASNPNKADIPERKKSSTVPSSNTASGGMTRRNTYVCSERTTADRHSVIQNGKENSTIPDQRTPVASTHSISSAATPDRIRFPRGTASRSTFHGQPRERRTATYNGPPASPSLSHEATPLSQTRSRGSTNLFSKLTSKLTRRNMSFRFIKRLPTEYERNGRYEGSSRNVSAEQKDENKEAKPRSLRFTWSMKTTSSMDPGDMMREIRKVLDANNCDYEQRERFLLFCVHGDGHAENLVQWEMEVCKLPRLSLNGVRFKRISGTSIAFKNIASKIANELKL

For orientation: Kd means the equilibrium constant for the complex coming apart. With `COc1cc(F)c(F)c(Nc2ccc(I)cc2F)c1NS(=O)(=O)C1(C[C@H](O)CO)CC1` [REFAMETINIB], the Kd in assay [1], in assay [2], in assay [3], in assay [4] and in assay [5] was > 30 µM (inactive) throughout.
For the compound `CCOc1ccn(-c2ccc(F)cc2)c(=O)c1C(=O)Nc1ccc(Oc2ccnc(N)c2Cl)c(F)c1` [BMS-777607], the Kd in assay [1], in assay [2], in assay [3], in assay [6] and in assay [5] was > 30 µM (inactive) in each case.
For the compound `CNC(=O)c1cc(COc2nnc(Nc3ccc(Cl)cc3)c3ccoc23)ccn1` [TELATINIB], the Kd in assay [1], in assay [2], in assay [6], in assay [4] and in assay [5] was > 30 µM (inactive) throughout.
Turning to `CC1(C)CNc2cc(NC(=O)c3cccnc3NCc3ccncc3)ccc21` [MOTESANIB], the Kd in assay [6] is > 30 µM (inactive).
Turning to `COc1ccc(-c2ccc3ncc4c(c3c2)n(-c2ccc(N3CCNCC3)c(C(F)(F)F)c2)c(=O)n4C)cn1` [BGT-226 FREE BASE], the Kd in assay [1], in assay [2], in assay [6], in assay [4] and in assay [5] was > 30 µM (inactive) throughout.
Take `CCN(CCCOc1ccc2c(Nc3cc(CC(=O)Nc4cccc(F)c4)n[nH]3)ncnc2c1)CCOP(=O)(O)O` [BARASERTIB]: the Kd in assay [1], in assay [2], in assay [3], in assay [6] and in assay [4] was > 30 µM (inactive) each time.
With `N#CCNC(=O)c1ccc(-c2ccnc(Nc3ccc(N4CCOCC4)cc3)n2)cc1` [MOMELOTINIB], the Kd in assay [1], in assay [2] and in assay [6] was > 30 µM (inactive) throughout.
`c1cc(OCCN2CCCCC2)cc(-c2n[nH]c3ccc(-c4nc[nH]n4)cc23)c1` [CC-401]: the Kd is > 30 µM (inactive) in assay [1]; > 30 µM (inactive) in assay [2]; 2.34 µM (active) in assay [3]; > 30 µM (inactive) in assay [4]; > 30 µM (inactive) in assay [5].
The pKd is the negative decadic logarithm of the Kd, by convention in mol/L. The low end stands for a large Kd, the high end for a small Kd. Turning to `Cn1cnc2c(F)c(Nc3ccc(Br)cc3Cl)c(C(=O)NOCCO)cc21` [SELUMETINIB], the pKd in assay [6] is 6.44.
`O=c1[nH]c([C@@H]2CCCN2)nc2c1oc1ccc(Cl)cc12`: the Kd in assay [1], in assay [2], in assay [3], in assay [4] and in assay [5] was > 30 µM (inactive) in each case.
Regarding `C=CCN(/C=C1/C(=O)O[C@H](COC)[C@@]2(C)C1=C(O)C(=O)C1=C2[C@H](OC(C)=O)C[C@]2(C)C(=O)CC[C@@H]12)CC=C` [SONOLISIB], the Kd in assay [1], in assay [2], in assay [3], in assay [4] and in assay [5] was > 30 µM (inactive) each time.
Consider `Cn1c(=O)n(-c2ccc(C(C)(C)C#N)cc2)c2c3cc(-c4cnc5ccccc5c4)ccc3ncc21` [DACTOLISIB], for which the Kd in assay [1], in assay [2], in assay [3], in assay [6] and in assay [4] was > 30 µM (inactive) throughout.
Regarding `Cc1c(NC(=O)OC[C@@H]2COCCN2)cn2ncnc(Nc3ccc4c(cnn4Cc4cccc(F)c4)c3)c12` [AC-480], the Kd in assay [1], in assay [2], in assay [3], in assay [4] and in assay [5] was > 30 µM (inactive) each time.
For the compound `CC(C)CC(=O)Nc1[nH]nc2c1CN(C(=O)C1CCN(C)CC1)C2(C)C` [PHA-793887], the Kd in assay [1], in assay [2], in assay [6], in assay [4] and in assay [5] was > 30 µM (inactive) each time.
Regarding `COc1cc2c(Oc3ccc4[nH]c(C)cc4c3F)ncnc2cc1OCCCN1CCCC1` [CEDIRANIB], in assay [6], the Kd was > 30 µM (inactive).
For the compound `C[C@]1(O)C[C@@H](c2nc(-c3ccc4ccc(-c5ccccc5)nc4c3)c3c(N)nccn32)C1` [LINSITINIB], the Kd in assay [1], in assay [2], in assay [3], in assay [6] and in assay [4] was > 30 µM (inactive) each time.
Regarding `CN(c1ncccc1CNc1nc(Nc2ccc3c(c2)CC(=O)N3)ncc1C(F)(F)F)S(C)(=O)=O` [PF-00562271], the Kd in assay [1], in assay [2], in assay [6] and in assay [4] was > 30 µM (inactive) throughout.
As for `C[C@@]1(C(=O)Nc2ccc(F)nc2)CCCN1c1nc(Nc2cc(C3CC3)n[nH]2)c2cccn2n1` [BMS-754807], the Kd in assay [6] was > 30 µM (inactive).
With `COc1cc2ncnc(Nc3ccc(F)c(Cl)c3)c2cc1NC(=O)/C=C/CN1CCCCC1` [DACOMITINIB ANHYDROUS], the Kd in assay [1], in assay [2], in assay [3], in assay [4] and in assay [5] was > 30 µM (inactive) each time.
